The values that follow come from publication PMC8539420, “Discovery of a Potent and Selective JNK3 Inhibitor with Neuroprotective Effect Against Amyloid β-Induced Neurotoxicity in Primary Rat Neurons” (International Journal of Molecular Sciences, 2021).

Test in all cases: Kinase panel screening 1 μM
Holding throughout (assay type): biochemical

One assay has as its target T1, c-Kit (Homo sapiens, UniProt P10721).
T1 construct: purchased Reaction Biology Corp. (Kinase HotSpot)
As to conditions: read-out: enzymatic inhibition c-Kit.

Another assay concerns the target T2, ROS/ROS1 (Homo sapiens, UniProt P08922).
T2 construct: purchased Reaction Biology Corp. (Kinase HotSpot)
The settings on record: read-out: enzymatic inhibition ROS/ROS1.

The target in a further assay is T3, IGF1R (Homo sapiens, UniProt P08069).
T3 construct: purchased Reaction Biology Corp. (Kinase HotSpot)
As to conditions: read-out: enzymatic inhibition IGF1R.

A further assay addresses T4, ABL1 (Homo sapiens, UniProt P00519).
T4 construct: purchased Reaction Biology Corp. (Kinase HotSpot)
As to conditions: read-out: enzymatic inhibition ABL1.

The target in a further assay is T5, PKA (Homo sapiens, UniProt P17612).
T5 construct: purchased Reaction Biology Corp. (Kinase HotSpot)
The settings on record: read-out: enzymatic inhibition PKA.

T2 sequence (P08922 28-2347): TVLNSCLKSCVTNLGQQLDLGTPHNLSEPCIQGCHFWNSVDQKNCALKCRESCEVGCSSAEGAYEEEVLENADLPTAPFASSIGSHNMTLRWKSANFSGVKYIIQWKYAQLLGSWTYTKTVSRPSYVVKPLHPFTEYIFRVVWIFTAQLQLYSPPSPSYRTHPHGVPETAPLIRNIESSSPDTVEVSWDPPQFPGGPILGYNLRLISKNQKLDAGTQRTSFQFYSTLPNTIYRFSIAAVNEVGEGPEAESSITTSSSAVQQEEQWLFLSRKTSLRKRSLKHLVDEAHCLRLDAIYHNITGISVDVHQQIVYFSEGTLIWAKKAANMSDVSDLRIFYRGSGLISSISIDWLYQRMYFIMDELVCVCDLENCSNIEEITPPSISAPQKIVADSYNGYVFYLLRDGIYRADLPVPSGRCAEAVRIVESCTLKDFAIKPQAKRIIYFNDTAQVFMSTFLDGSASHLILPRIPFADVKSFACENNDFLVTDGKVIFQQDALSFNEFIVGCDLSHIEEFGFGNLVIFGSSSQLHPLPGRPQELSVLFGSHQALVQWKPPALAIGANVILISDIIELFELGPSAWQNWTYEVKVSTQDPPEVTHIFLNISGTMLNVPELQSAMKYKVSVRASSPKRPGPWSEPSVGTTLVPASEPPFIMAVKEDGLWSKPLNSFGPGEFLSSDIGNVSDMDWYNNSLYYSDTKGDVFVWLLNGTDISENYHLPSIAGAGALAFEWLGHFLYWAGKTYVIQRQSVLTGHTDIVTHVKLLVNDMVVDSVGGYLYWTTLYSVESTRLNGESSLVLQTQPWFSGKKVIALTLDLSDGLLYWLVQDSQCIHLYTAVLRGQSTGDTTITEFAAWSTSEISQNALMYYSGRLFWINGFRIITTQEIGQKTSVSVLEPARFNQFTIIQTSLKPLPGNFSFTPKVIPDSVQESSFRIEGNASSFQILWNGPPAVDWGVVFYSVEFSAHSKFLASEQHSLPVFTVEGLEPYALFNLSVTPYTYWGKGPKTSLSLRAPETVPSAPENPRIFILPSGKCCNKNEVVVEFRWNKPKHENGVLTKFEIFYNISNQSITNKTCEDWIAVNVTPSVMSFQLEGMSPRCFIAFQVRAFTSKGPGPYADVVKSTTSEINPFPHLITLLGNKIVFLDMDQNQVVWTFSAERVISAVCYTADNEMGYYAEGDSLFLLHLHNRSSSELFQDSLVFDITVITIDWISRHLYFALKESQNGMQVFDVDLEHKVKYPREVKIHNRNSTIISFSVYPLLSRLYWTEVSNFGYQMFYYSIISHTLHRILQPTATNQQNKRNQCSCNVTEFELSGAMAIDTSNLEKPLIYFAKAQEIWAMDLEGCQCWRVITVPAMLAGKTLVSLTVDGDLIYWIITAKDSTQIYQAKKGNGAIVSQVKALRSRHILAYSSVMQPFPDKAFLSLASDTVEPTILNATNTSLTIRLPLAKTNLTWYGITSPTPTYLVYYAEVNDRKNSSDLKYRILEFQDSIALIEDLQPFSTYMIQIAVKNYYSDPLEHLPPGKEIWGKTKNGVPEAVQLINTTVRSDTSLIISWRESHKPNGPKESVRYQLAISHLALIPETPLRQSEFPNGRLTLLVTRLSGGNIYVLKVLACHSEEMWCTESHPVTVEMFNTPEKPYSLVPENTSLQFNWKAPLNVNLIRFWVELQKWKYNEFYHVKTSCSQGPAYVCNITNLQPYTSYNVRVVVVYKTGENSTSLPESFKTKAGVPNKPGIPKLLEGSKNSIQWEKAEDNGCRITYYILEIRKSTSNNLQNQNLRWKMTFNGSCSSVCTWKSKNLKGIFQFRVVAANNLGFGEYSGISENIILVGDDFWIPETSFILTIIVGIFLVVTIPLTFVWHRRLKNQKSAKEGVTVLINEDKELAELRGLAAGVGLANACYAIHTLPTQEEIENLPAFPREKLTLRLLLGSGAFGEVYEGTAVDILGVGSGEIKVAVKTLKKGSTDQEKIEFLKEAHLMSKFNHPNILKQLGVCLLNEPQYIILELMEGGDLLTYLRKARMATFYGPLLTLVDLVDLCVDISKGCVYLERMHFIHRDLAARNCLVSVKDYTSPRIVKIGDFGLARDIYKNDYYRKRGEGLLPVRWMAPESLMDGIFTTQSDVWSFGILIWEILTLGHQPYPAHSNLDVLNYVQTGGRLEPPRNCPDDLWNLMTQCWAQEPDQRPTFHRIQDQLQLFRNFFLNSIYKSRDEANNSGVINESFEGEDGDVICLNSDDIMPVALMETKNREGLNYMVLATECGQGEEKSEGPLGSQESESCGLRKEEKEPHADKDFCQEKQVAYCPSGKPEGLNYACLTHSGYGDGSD
T1 sequence (P10721 26-976): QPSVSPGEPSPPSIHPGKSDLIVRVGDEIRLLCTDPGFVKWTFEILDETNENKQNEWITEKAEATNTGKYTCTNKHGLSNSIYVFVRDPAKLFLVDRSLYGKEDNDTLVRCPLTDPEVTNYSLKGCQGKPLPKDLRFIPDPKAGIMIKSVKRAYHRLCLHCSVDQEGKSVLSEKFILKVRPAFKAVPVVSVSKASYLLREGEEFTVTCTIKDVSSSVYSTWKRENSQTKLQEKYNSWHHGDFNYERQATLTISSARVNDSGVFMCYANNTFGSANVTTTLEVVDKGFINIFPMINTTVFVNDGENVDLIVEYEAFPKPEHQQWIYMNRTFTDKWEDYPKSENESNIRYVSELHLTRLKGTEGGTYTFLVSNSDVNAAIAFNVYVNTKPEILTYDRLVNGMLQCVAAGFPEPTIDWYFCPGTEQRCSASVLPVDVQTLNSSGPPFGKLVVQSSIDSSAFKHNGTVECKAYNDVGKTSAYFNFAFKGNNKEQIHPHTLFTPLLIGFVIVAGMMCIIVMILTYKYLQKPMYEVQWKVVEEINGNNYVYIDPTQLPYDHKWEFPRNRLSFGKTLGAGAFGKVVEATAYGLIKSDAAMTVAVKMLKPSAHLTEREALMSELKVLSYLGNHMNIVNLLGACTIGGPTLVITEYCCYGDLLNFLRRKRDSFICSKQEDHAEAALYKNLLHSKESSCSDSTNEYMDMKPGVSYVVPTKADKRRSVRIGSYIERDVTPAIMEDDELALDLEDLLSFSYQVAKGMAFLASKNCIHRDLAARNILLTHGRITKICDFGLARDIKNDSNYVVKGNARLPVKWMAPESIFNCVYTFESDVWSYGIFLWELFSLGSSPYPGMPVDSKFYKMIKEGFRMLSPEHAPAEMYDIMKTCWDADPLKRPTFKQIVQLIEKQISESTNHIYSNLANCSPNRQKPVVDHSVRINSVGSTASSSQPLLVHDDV
T4 sequence (P00519 whole entry): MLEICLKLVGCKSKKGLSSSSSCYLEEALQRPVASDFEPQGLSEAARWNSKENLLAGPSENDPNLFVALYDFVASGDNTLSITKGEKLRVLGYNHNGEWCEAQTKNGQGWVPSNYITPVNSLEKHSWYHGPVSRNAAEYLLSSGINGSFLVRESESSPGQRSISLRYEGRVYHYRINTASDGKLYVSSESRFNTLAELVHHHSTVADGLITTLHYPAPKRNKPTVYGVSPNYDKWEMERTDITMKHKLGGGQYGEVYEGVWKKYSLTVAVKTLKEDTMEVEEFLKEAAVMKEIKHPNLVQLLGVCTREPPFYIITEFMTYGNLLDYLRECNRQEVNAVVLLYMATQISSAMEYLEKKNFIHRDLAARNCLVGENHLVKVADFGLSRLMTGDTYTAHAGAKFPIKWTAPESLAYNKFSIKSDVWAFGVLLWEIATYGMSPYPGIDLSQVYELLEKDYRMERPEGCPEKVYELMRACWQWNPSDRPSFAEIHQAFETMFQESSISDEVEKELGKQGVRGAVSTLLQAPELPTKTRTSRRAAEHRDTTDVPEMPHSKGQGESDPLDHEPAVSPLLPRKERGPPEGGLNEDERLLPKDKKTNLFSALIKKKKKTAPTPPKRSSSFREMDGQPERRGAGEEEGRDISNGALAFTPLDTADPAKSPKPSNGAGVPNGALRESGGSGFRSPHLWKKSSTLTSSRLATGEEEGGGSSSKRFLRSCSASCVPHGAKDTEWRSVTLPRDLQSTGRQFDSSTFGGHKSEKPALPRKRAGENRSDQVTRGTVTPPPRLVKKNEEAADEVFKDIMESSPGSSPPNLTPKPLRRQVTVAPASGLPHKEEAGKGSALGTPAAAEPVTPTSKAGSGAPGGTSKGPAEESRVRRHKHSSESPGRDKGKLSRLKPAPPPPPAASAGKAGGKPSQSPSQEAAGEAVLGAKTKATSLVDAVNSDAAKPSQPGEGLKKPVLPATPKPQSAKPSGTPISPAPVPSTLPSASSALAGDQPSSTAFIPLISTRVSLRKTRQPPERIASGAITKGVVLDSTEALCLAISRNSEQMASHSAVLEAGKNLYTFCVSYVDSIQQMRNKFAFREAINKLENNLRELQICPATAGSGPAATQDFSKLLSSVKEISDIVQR

Take `O=C(C1CC1)N1CCC[C@H](Nc2nccc(-n3c(-c4ccc5c(c4)OCCO5)nc4cc(O)c(O)cc43)n2)C1` [35b, (S)-Cyclopropyl(3-((4-(2-(2,3-dihydrobenzo[b][1,4]dioxin-6-yl)-5,6-dihydroxy-1H-benzo[d]imidazol-1-yl)pyrimidin-2-yl)amino)piperidin-1-yl)methanone]: the inhibition at 1 µM at c-Kit was 0%; at ROS/ROS1, 0%; on IGF1R, 13.4%; on ABL1, 20.5%; at PKA, 0%.
